# Measured values from patent US8907076B2, “Mycobacterial peptide deformylase” (Council of Scientific and Industrial Research, priority 2006, dated 2014).
# Legend:
# [1] = tested on: E. coli; test: Growth of E. coli culture with antisense PS-ODN (colony forming units); type: cell-based, Escherichia coli; details: 10 μM PS-ODN, Lauria-Bertani medium; colony forming units vs untreated
# Method: Further, to ensure that PS-ODN1 permeabilized within the M. smegmatis cells, PS-ODN1 were conjugated with 3′Flourescein label and used for the treatment of mycobacterial culture (˜1×10^5 cells of M. smegmatis were incubated with 10 μM PS-ODNs in 3 ml 7H9 Middlebrook broth supplemented with 10% ADC and grown at 37° C./200 rpm for 24 hrs). […] Since PS-ODN1 was mycobacteria specific, in E. coli where this insertion sequence is absent, when culture was treated with 10 μM PS-ODN1 had no effect on its growth. (FIG. 7, right panel).
# [2] = tested on: Mycobacterium smegmatis strain mc^2155; test: Growth profile of M. smegmatis culture with antisense PS-ODNs (OD600 and colony forming units); details: 10 μM PS-ODN, 24 h, 7H9 Middlebrook broth
# [3] = tested on: endogenous PDF protein; type: cell-based, Mycobacterium smegmatis
substance,measurement,setting,value
"PS-ODN1: 5′ phosphothiorate modified antisense oligodeoxyribonucleotide spanning bases 219-249 of M. tuberculosis def (insertion region); probably SEQ ID NO: 14 (antisense CGGATTGATGACCACACCGCGTCGGCGGGCGGTCAT; DNA, backbone and methylation of C not given here; phosphorothioate modified at 5'; listed as Mycobacterium tuberculosis)",effect on growth profile of E. coli,[1],no effect
same,decrease in growth of M. smegmatis compared to the untreated culture,[2],five-fold decrease
same,level of expression of endogenous PDF protein compared to untreated control,[3],significant reduction
